Here are results for two compounds from US20150080380A1, “Therapeutic Uses” (GLAXOSMITHKLINE INTELLECTUAL PROPERTY DEVELOPMENT LIMITED, priority 2012, published 2015).

One experiment deals with OPC differentiation. In words: Oligodendrocyte precursor cell (OPC) differentiation assay (MBP immunocytochemistry). Format: cell-based, rat. Particulars: for EC50: Rattus norvegicus, Oligodendrocyte precursor cell. The method, then:
The effects of small-molecule inverse agonists and neutral antagonists of histamine receptor 3 (H3R) on OPC differentiation were determined using the following assay.
The enriched OPC were obtained from dissecting 2-d-old rat pups forebrain. The pups were anesthetized and decapitated. Then the skull was cut with microdissecting scissors and the cortex was taken out with Dumont forceps. The meninges were removed with fine tips. After repeated trituration of the cortex through cell strainer, cells were re-suspended with the culture media consisted of DMEM supplemented with 20% Fetal bovine serum (Invitrogen, Carlsbad, Calif.), glutamine (4 mM, (Invitrogen), and plated onto poly-D-lysine (PDL, […] for 1 h, Sigma, St. Louis, Mo.)-coated T75 flasks. The resulting cultures were fed with fresh culture media twice per week and almost all the neurons will die due to the high concentration of serum in one week. Then the mixed glial cells were subjected to a series shake-off procedure to obtain pure OPCs two weeks later. Specifically, the mixed glial cells were shaken initially for 1 hour at 100 rpm to remove microglia and shaken for 20-22 hours at 37° C. at 200 rpm to enrich OPCs. OPCs were collected by centrifugation at 1200 rpm for 5 min, re-suspended in basal chemically defined medium (BDM). BDM consisted of DMEM supplemented with N2 medium (100×, Invitrogen), glutamine (4 mM, Invitrogen), BSA (0.1 mg/ml, Sigma), hydrocortisone (20 nM, Sigma), selenium (30 nM, Sigma) and biotin (10 nM, Sigma). OPCs were plated on poly-ornithine (PO, 50 μg/ml for 1 hr, Sigma)-coated culture dishes and maintained in BDM supplemented with bFGF (10 ng/ml, Invitrogen) and PDGF (10 ng/ml, PeproTech, Rocky Hill, N.J.) before experimental manipulation. OPCs were 95% pure judged by A2B5+ staining.
To initiate OPC differentiation, OPCs were firstly treated with 0.05% Trypsin/EDTA, and seeded into PO-coated 384-mini well plate at a density of 2,000 to 5,000 cells/well. Each test compound was dissolved in DMSO at the concentration of 10 mM for the assay. Compounds at different concentrations (full dose curve, 0.3 nM-10 uM) were added into the OPC culture in duplicates with Echo machine (Thermo, Waltham, Mass.). OPCs were cultured in BDM supplemented with N-acetyl-L-cystenine (30 μM, Sigma) to differentiate into mature oligodendrocytes for 4 days. BDM comprise DMEM (Invitrogen), N2 (100×, Invitrogen), L-Glu (50×, Invitrogen), Sodium Pyruvate (100×, Invitrogen), BSA (0.1%, Sigma), Biotin (10 nM, Sigma), hydrocortisone (10 nM, Sigma). The resulting cultures were fixed with 4% polyformaldehyde (Sigma) and samples were blocked with the blocking buffer (Donkey Serum 3%, Sigma; Triton X-100 0.04%, Sigma). Then fixed cells were incubated in primary antibodies (anti-myelin basic protein, MBP antibody, 600× dilution in blocking buffer) overnight at 4° C., washed thoroughly with PBS and then incubated with Alexa 488-labeled secondary antibody (Molecular Probes, Invitrogen) for 2 h at R.T; then washed thoroughly with PBS and stained with Dapi (1 ug/ml, Sigma),
The full-plate immunocytochemistry staining was read by an automatic image-based analysis system-Cellomics (Thermo) and the raw data for each well was acquired as percentage of MBP+ population as follows: Pictures of eight fields per well were captured and analyzed quantitatively; the well data is the average of 8 fields. The intensity of anti-MBP staining in the cytosol was used as the criteria of positive objects. The threshold of positive objects was set based on the average intensity of the positive control well, for which triiodothyronine (15 nM) was used. Then the data was analyzed and presented as fold change of the number of the vehicle control well. Graphs were generated by softwares: Microsoft Excel and IDBS XL fits. The curve fitting was performed with software XL fits to derive EC50 of the positive compounds.
All data except FIG. 1 are given as mean±standard error of the mean (SEM). […]

Experiment [1] relates to MAG and MBP expression in OPCs. In words: Western blot of mature oligodendrocyte markers in differentiating OPCs. Format: cell-based, rat. The following applies: differentiating oligodendrocytes after treatment. The method, then:
The antibodies used for immunoblot and immunocytochemistry experiments were rabbit anti-myelin basic protein (MBP, Millipore, Billerica, Mass.), mouse anti-myelin-associated glycoprotein (MAG, abcam, Cambridge, Mass.).
After treatments, OPCs were washed twice with ice-cold PBS and total cell lysates were harvested in RIPA lysis buffer (50 mM Tris-HCl, pH 7.5, 1 mM EDTA, 1 mM EGTA, 1 mM sodium orthovanadate, 50 mM sodium fluoride, 0.1% 2-mercaptoethanol, 1% triton X-100 and proteases inhibitor cocktail). The lysates were briefly sonicated and stored at −80° C. before Western analysis. The BCA Protein Assay Reagent (PIERCE, Thermo) was performed to determine protein concentration. 15 μg of total protein per sample was aliquoted, boiled for 5 min after being mixed with 2×SDS buffer (125 mM Tris-HCl, 4% SDS, 20% glycerol, 100 mM DTT) and separated by SDS-PAGE on Bis-Tris mini-gels (Invitrogen). Separated proteins were then transferred to nitrocellulose membranes and blocked in 5% milk/TBS-0.1% Tween for 1 h at room temperature. Membranes were then incubated in the presence of primary antibodies diluted in 5% milk/TBS-0.1% Tween overnight at 4° C. The following day, membranes were washed 3 times for 5 min with TBS-0.1% Tween and incubated for 1 h at room temperature in 5% milk/TBS-0.1%. […]
For orientation: A western blot detects proteins with antibodies after separation by electrophoresis.

Read-outs that look alike come from different tables or passages of the source.

One may read the EC50 as the concentration at which the effect is half-maximal. As for `c1cc2c(cc1-c1noc(CC3CCN(C4CCC4)CC3)n1)OCO2` [Example compound 2, 3-(benzo[d][1,3]dioxol-5-yl)-5-((1-cyclobutylpiperidin-4-yl)methyl)-1,2,4-oxadiazole], the EC50 with OPC differentiation (96 h, 0.3 nM-10 uM, 4 days, FIG. 1, read-out: EC50, promotion of OPC differentiation (MBP+ population)) stood at 25 nM. Moreover, the “expression levels of MAG and MBP (western blot)” value in experiment [1] was “significant increase”.
For the compound `O=C1CCCN1c1ccc(Oc2ccc3c(c2)CCN(C2CCC2)CC3)nc1` [Example compound 1, 1-{6-[(3-cyclobutyl-2,3,4,5-tetrahydro-1H-3-benzazepin-7-yl)oxy]-3-pyridinyl}-2-pyrrolidinone], the EC50 worked out at 159 ± 57 nM in the experiment on OPC differentiation (five experiments (n=5), FIG. 3b, read-out: EC50, promotion of OPC differentiation) and 118 ± 49 nM with OPC differentiation (two experiments (n=2), FIG. 3a, read-out: EC50, promotion of OPC differentiation). Moreover, the MBP-positive cells entry in the experiment on OPC differentiation (at 3 uM, n=5, FIG. 3b) is on record as “up to 1.8±0.1 folds of control”. Besides, in experiment [1], the “expression levels of MAG and MBP (western blot)” value was “increased expression levels”.
